Where “and” joins values, the source holds several entries; their conditions need not be identical. Identical values can stand only once.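 Compound exposure: 48 hours, 5 concentrations, 96-well plates. Abbreviation: GI50, concentration required for 50% inhibition of growth. At the TGI there is no net growth.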

Test systems include BT-549 breast; NCI-H226 lung; OVCAR-4 ovarian; OVCAR-5 ovarian; SK-MEL-5 melanoma; SN12C renal; SW-620 colon; UACC-62 melanoma.
Experiment in all cases: NCI-60 cell line screen, 48 h

As to `C=C1CCC2C3(C)COC(c4ccc(N(C)C)cc4)OC3CCC2(C)C1C/C=C1/C(=O)OCC1O` (stereo unspecified), the GI50 with BT-549 breast is 2.95 µM; in the experiment with NCI-H226 lung it was 6.09 µM; in the experiment on OVCAR-4 ovarian, 2.5 µM; with OVCAR-5 ovarian, 7.7 µM; with SK-MEL-5 melanoma, 7.2 µM; in the experiment on SN12C renal, 2.52 µM. Also, the results for the GI50 in the experiment with SW-620 colon and in the experiment with UACC-62 melanoma were 1.95 µM and 4.26 µM, respectively. The TGI stood at 11.1 µM with BT-549 breast; 18.2 µM in the experiment with NCI-H226 lung; 8.98 µM with OVCAR-4 ovarian; 20 µM in the experiment on OVCAR-5 ovarian; 20.3 µM in the experiment on SK-MEL-5 melanoma; 7.98 µM with SN12C renal. Also, the TGI with SW-620 colon was found to be 4.25 µM; in the experiment with UACC-62 melanoma it was 16.9 µM.

As to `COc1ccc2c(c1)c(=O)oc1cc(OC/C(C)=N\O)ccc12`, the GI50 in the experiment with BT-549 breast is 49.2 µM; in the experiment on NCI-H226 lung, more than 100 µM; with OVCAR-4 ovarian, more than 100 µM; in the experiment on OVCAR-5 ovarian, more than 100 µM; with SK-MEL-5 melanoma, more than 100 µM; in the experiment on SN12C renal it was more than 100 µM. Besides, the GI50 with SW-620 colon is more than 100 µM; in the experiment with UACC-62 melanoma, 75.5 µM. In addition, the TGI in the experiment on BT-549 breast, in the experiment on NCI-H226 lung, with OVCAR-4 ovarian, in the experiment with OVCAR-5 ovarian, in the experiment with SK-MEL-5 melanoma and in the experiment on SN12C renal was more than 100 µM throughout. The TGI with SW-620 colon and in the experiment with UACC-62 melanoma was more than 100 µM each time.

For the compound `FC(F)(F)c1ccc(Nc2nc(-c3c(C(F)(F)F)nc4ccccn34)cs2)cc1`, the GI50 was 0.0564 µM in the experiment with BT-549 breast; 0.358 µM with NCI-H226 lung; 1.22 µM with OVCAR-4 ovarian; 0.476 µM with OVCAR-5 ovarian; 0.0358 µM in the experiment on SK-MEL-5 melanoma; 0.297 µM in the experiment with SN12C renal. In addition, the GI50 with SW-620 colon was 0.0373 µM; in the experiment on UACC-62 melanoma it was 0.0385 µM. For the same compound, the TGI was 4.02 µM with BT-549 breast; 4.49 µM in the experiment with NCI-H226 lung; 15.6 µM with OVCAR-4 ovarian; 16.5 µM with OVCAR-5 ovarian; 1.49 µM in the experiment with SK-MEL-5 melanoma; 8.28 µM in the experiment with SN12C renal. In addition, the TGI in the experiment with SW-620 colon came to 12.3 µM; with UACC-62 melanoma, 3.43 µM.

Take `CCN(CC)CCCC(C)Nc1ccnc2cc(Oc3ccccc3)ccc12` (stereo unspecified): the GI50 in the experiment with BT-549 breast is 7.77 µM and 14.9 µM; in the experiment on NCI-H226 lung, 8.4 µM and 14.9 µM; in the experiment with OVCAR-4 ovarian, 9.78 µM and 16 µM; in the experiment with OVCAR-5 ovarian it was 13.1 µM and 13.4 µM; in the experiment with SK-MEL-5 melanoma, 1.69 µM and 1.8 µM; in the experiment with SN12C renal it was 9.08 µM and 19.6 µM. Besides, the GI50 in the experiment with SW-620 colon was 3.36 µM and 5.53 µM; in the experiment on UACC-62 melanoma, 4.16 µM and 3.24 µM. Besides, the TGI was 21.3 µM and 30.4 µM in the experiment on BT-549 breast; 31.1 µM and > 100 µM in the experiment on NCI-H226 lung; 41.7 µM and 59.2 µM in the experiment with OVCAR-4 ovarian; 41.3 µM and 44.1 µM in the experiment with OVCAR-5 ovarian; 3.22 µM and 3.37 µM in the experiment on SK-MEL-5 melanoma; 39.5 µM and > 100 µM with SN12C renal. Further, the TGI in the experiment on SW-620 colon was 14.3 µM and 25.9 µM; in the experiment with UACC-62 melanoma, 11.2 µM and 12.3 µM.

`Fc1ccc2c(c1)C1=NN(c3ccccc3)C(F)C1CO2` (stereo unspecified): the GI50 with BT-549 breast was 10.4 µM; in the experiment with NCI-H226 lung it was 8.08 µM; in the experiment with OVCAR-4 ovarian it was 7.72 µM; in the experiment on OVCAR-5 ovarian, 18.1 µM; in the experiment on SK-MEL-5 melanoma, 8.48 µM; in the experiment on SN12C renal, 6.93 µM. Also, the GI50 is 9.95 µM in the experiment on SW-620 colon and 6.43 µM in the experiment with UACC-62 melanoma. The TGI in the experiment on BT-549 breast was 22.2 µM; in the experiment on NCI-H226 lung, 19.1 µM; with OVCAR-4 ovarian, 17.4 µM; with OVCAR-5 ovarian it was more than 50 µM; in the experiment on SK-MEL-5 melanoma it was 16.2 µM; in the experiment on SN12C renal, 14.7 µM. In addition, the TGI in the experiment on SW-620 colon was 23.6 µM; in the experiment on UACC-62 melanoma, 14 µM.

For the compound `COc1ccc(/C(COc2ccc3c(=O)cc(-c4ccccc4)oc3c2)=N\O)cc1`, the GI50 in the experiment with BT-549 breast is 12.9 µM; with NCI-H226 lung, 17.7 µM; in the experiment with OVCAR-4 ovarian it was 21.5 µM; with OVCAR-5 ovarian, 0.402 µM; with SK-MEL-5 melanoma, 9.61 µM; in the experiment on SN12C renal, 9.36 µM. Also, the figures for the GI50 with SW-620 colon and in the experiment on UACC-62 melanoma were more than 35.6 µM and 10.9 µM, respectively. Further, the TGI in the experiment on BT-549 breast was 25.8 µM; in the experiment on NCI-H226 lung it was more than 50 µM; in the experiment on OVCAR-4 ovarian it was more than 41.5 µM; in the experiment with OVCAR-5 ovarian, more than 10.2 µM; in the experiment on SK-MEL-5 melanoma, more than 29.4 µM; in the experiment on SN12C renal it was 36.4 µM. The TGI in the experiment with SW-620 colon is more than 50 µM; in the experiment with UACC-62 melanoma, 31.4 µM.

For `COc1ccc(-c2cc(=O)[nH]c3c(OC)c4ccccc4c(OC)c23)cc1`, the GI50 is 2.33 µM in the experiment with BT-549 breast; more than 20 µM in the experiment with NCI-H226 lung; 1.21 µM in the experiment with OVCAR-4 ovarian; 3.58 µM in the experiment with OVCAR-5 ovarian; 0.398 µM in the experiment on SK-MEL-5 melanoma; 0.612 µM in the experiment on SN12C renal. In addition, the results for the GI50 in the experiment with SW-620 colon and in the experiment with UACC-62 melanoma were 0.418 µM and 0.396 µM, respectively. The TGI in the experiment on BT-549 breast, in the experiment with NCI-H226 lung, in the experiment with OVCAR-4 ovarian, in the experiment on OVCAR-5 ovarian, with SK-MEL-5 melanoma and in the experiment with SN12C renal was more than 100 µM in each case. Also, the TGI in the experiment on SW-620 colon and in the experiment on UACC-62 melanoma was more than 100 µM throughout.

In the case of `CN[C@@H](C)C(=O)N[C@H](C(=O)N1CCC[C@H]1C(=O)Nc1snnc1-c1ccccc1)C1CCCCC1`, the TGI is more than 81.5 µM in the experiment with BT-549 breast; more than 100 µM in the experiment on NCI-H226 lung; 99.6 µM in the experiment with OVCAR-4 ovarian; more than 100 µM in the experiment with OVCAR-5 ovarian; 33.9 µM in the experiment on SK-MEL-5 melanoma; more than 100 µM in the experiment with SN12C renal. The TGI in the experiment on SW-620 colon is more than 100 µM; in the experiment on UACC-62 melanoma, 34.2 µM. Also, the GI50 in the experiment with NCI-H226 lung is more than 100 µM; in the experiment with OVCAR-4 ovarian, 5.58 µM; with OVCAR-5 ovarian, more than 100 µM; in the experiment on SK-MEL-5 melanoma, 16.7 µM; with SN12C renal it was 74.9 µM; in the experiment with SW-620 colon, more than 100 µM. Besides, the GI50 in the experiment with UACC-62 melanoma is 16.2 µM.

On to `N#CC(NC12CC3CC(CC(C3)C1)C2)c1ccc2c(c1)OCO2` (stereo unspecified), for which the TGI in the experiment on BT-549 breast, in the experiment with NCI-H226 lung, in the experiment on OVCAR-4 ovarian, with OVCAR-5 ovarian, in the experiment with SK-MEL-5 melanoma and with SN12C renal was more than 100 µM throughout. For the same compound, the TGI in the experiment on SW-620 colon and in the experiment on UACC-62 melanoma was more than 100 µM in each case.

For `COc1ccc(-c2cn(-c3cc(OC)c(OC)c(OC)c3)c(SCc3ccccc3)n2)cc1OC`, the GI50 with BT-549 breast is more than 100 µM; with NCI-H226 lung, more than 100 µM; in the experiment with OVCAR-4 ovarian, more than 100 µM; with OVCAR-5 ovarian it was more than 100 µM; in the experiment with SK-MEL-5 melanoma it was 68.2 µM; with SN12C renal, more than 100 µM. Also, the GI50 in the experiment with SW-620 colon and in the experiment on UACC-62 melanoma was more than 100 µM in each case. Also, the TGI in the experiment with BT-549 breast, with NCI-H226 lung, in the experiment with OVCAR-4 ovarian, in the experiment on OVCAR-5 ovarian, in the experiment on SK-MEL-5 melanoma and with SN12C renal was more than 100 µM throughout. For the same compound, the TGI in the experiment on SW-620 colon and with UACC-62 melanoma was more than 100 µM in each case.

(Values after PubChem BioAssay (NCI).)
